The numbers were not newly measured in US20190125685A1, “COMPOSITE CAPSULE PREPARATION CONTAINING TADALAFIL AND TAMSULOSIN AND HAVING IMPROVED STABILITY AND ELUTION RATE” (HANMI PHARM. CO., LTD., priority 2016, published 2019), which cites them from elsewhere.

Structures are written as SMILES.

For the series the following is noted: in vivo.

Regarding `CN1CC(=O)N2[C@H](c3ccc4c(c3)OCO4)c3[nH]c4ccccc4c3C[C@@H]2C1=O` [Tadalafil], the “Half-life relative to that of sildenafil or vardenafil” value is no less than 3 times.
